Where a SMILES comes first, the peptide text is derived from it. Bridges are numbered along the chain shown (N, C = ends). [ ]: non-standard residue; d: D form. The star is where a group is joined. Tyr(3,5-F2) = N[C@@H](Cc1cc(F)c(O)c(F)c1)C(=O)O; Tyr(3-Cl) = N[C@@H](Cc1ccc(O)c(Cl)c1)C(=O)O; Bip = N[C@@H](Cc1ccc(-c2ccccc2)cc1)C(=O)O; Phe(4-NH2) = Nc1ccc(C[C@H](N)C(=O)O)cc1; Phe(3-Me) = Cc1cccc(C[C@H](N)C(=O)O)c1; 3Pal = N[C@@H](Cc1cccnc1)C(=O)O; Cha = N[C@@H](CC1CCCCC1)C(=O)O; dDab = NCC[C@@H](N)C(=O)O; Carboxymethyl = O=C(O)C*; Orn = NCCC[C@H](N)C(=O)O; Dab = NCC[C@H](N)C(=O)O; Dap = NC[C@H](N)C(=O)O; Ac3c = NC1(C(=O)O)CC1; Piv = CC(C)(C)C(=O)*
Each compound was assayed against T1, human PD-1 / PD-L1-Ig binding on Jurkat cell line over-expressing human PD-1 (Jurkat-PD-1) (Homo sapiens, UniProt Q15116) (assay: Jurkat-PD-1 Cell Binding High-Content Screening Assay (CBA)). Conditions: Jurkat-PD-1 cells, PE-labeled PD-L1-Ig 20 nM final; read-out: Jurkat HPD1_PDL1 IC50.
T1 construct: expressed in transfected cells; host or cells: Jurkat
T1 sequence (Q15116 25-288): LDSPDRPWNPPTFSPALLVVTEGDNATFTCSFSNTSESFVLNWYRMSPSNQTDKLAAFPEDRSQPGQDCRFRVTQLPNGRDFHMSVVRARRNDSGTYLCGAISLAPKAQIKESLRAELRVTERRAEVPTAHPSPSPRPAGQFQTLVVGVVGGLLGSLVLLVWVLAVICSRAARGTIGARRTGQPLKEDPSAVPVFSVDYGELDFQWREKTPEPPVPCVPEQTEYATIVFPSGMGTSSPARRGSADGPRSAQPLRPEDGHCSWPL
Type: cell-based
In short: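 PE-PD-L1-Ig 20 nM final; cells in DMEM/10% FCS; cpd pre-incubation 2 h, 37° C; ligand 1 h; PFA fix + Hoechst 33342; high-content imaging read-out.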

Row | IC50 [nM] | SMILES
1 | 18.1 | CC(C)C[C@H]1NC(=O)[C@H](CCCN)NC(=O)[C@H](C(C)C)NC(=O)[C@H](Cc2ccc(-c3ccccc3)cc2)NC(=O)[C@H](C(C)C)NC(=O)[C@H](Cc2ccc(N)cc2)NC(=O)[C@H](CC(=O)O)NC(=O)[C@H](Cc2ccc(OCC(=O)O)cc2)NC(=O)[C@H](CN)NC(=O)CSC[C@@H](C(=O)N[C@@H](CCN)C(N)=O)NC(=O)[C@H](CCCCN)NC(=O)[C@H](C(C)C)NC(=O)[C@H](CC2CCCCC2)NC(=O)[C@H](CCN)NC1=O [Compound 2032] ({CH2CO}-[Dap]Y(Carboxymethyl)D[Phe(4-NH2)]V[Bip]V[Orn][dL][Dab][Cha]VKC[Dab]-NH2; thioether N-14)
2 | 18.4 | CC(C)C[C@H]1NC(=O)[C@H](CCCN)NC(=O)[C@H](C(C)C)NC(=O)[C@H](Cc2ccc(-c3ccccc3)cc2)NC(=O)[C@H](C(C)C)NC(=O)[C@H](Cc2ccc(O)cc2)NC(=O)[C@H](CC(=O)O)NC(=O)[C@H](Cc2ccc(OCC(=O)O)cc2)NC(=O)[C@H](CN)NC(=O)CSC[C@@H](C(=O)N[C@@H](CCN)C(N)=O)NC(=O)[C@H](CCCCN)NC(=O)[C@H](C(C)C)NC(=O)[C@H](CC2CCCCC2)NC(=O)[C@H](CCN)NC1=O [Compound 2033] ({CH2CO}-[Dap]Y(Carboxymethyl)DYV[Bip]V[Orn][dL][Dab][Cha]VKC[Dab]-NH2; thioether N-14)
3 | 84.1 | CC(C)C[C@H]1NC(=O)[C@H](CCCN)NC(=O)[C@H](C(C)C)NC(=O)[C@H](Cc2ccc(-c3ccccc3)cc2)NC(=O)[C@H](C(C)C)NC(=O)[C@H](Cc2cc(F)c(O)c(F)c2)NC(=O)[C@H](CC(=O)O)NC(=O)[C@H](Cc2ccc(OCC(=O)O)cc2)NC(=O)[C@H](CN)NC(=O)CSC[C@@H](C(=O)N[C@@H](CCN)C(N)=O)NC(=O)[C@H](CCCCN)NC(=O)[C@H](C(C)C)NC(=O)[C@H](CC2CCCCC2)NC(=O)[C@H](CCN)NC1=O [Compound 2034] ({CH2CO}-[Dap]Y(Carboxymethyl)D[Tyr(3,5-F2)]V[Bip]V[Orn][dL][Dab][Cha]VKC[Dab]-NH2; thioether N-14)
4 | 15 | CC(C)C[C@H]1NC(=O)[C@H](CCCN)NC(=O)[C@H](C(C)C)NC(=O)[C@H](Cc2ccc(-c3ccccc3)cc2)NC(=O)[C@H](C(C)C)NC(=O)[C@H](Cc2ccc(O)c(Cl)c2)NC(=O)[C@H](CC(=O)O)NC(=O)[C@H](Cc2ccc(OCC(=O)O)cc2)NC(=O)[C@H](CN)NC(=O)CSC[C@@H](C(=O)N[C@@H](CCN)C(N)=O)NC(=O)[C@H](CCCCN)NC(=O)[C@H](C(C)C)NC(=O)[C@H](CC2CCCCC2)NC(=O)[C@H](CCN)NC1=O [Compound 2035] ({CH2CO}-[Dap]Y(Carboxymethyl)D[Tyr(3-Cl)]V[Bip]V[Orn][dL][Dab][Cha]VKC[Dab]-NH2; thioether N-14)
5 | 10 | Cc1cccc(C[C@@H]2NC(=O)[C@H](CC(=O)O)NC(=O)[C@H](Cc3ccc(OCC(=O)O)cc3)NC(=O)[C@H](CN)NC(=O)CSC[C@@H](C(=O)N[C@@H](CCN)C(N)=O)NC(=O)[C@H](CCCN)NC(=O)[C@H](C(C)C)NC(=O)[C@H](CC3CCCCC3)NC(=O)[C@H](CCNC(=O)C(C)(C)C)NC(=O)[C@@H](CC(C)C)NC(=O)[C@H](CCCN)NC(=O)[C@H](Cc3ccc(O)cc3)NC(=O)[C@H](Cc3ccc(-c4ccccc4)cc3)NC(=O)[C@H](Cc3ccc(O)cc3)NC2=O)c1 [Compound 2036] ({CH2CO}-[Dap]Y(Carboxymethyl)D[Phe(3-Me)]Y[Bip]Y[Orn][dL][Dab](Piv)[Cha]V[Orn]C[Dab]-NH2; thioether N-14)
6 | 89.7 | Cc1cccc(C[C@@H]2NC(=O)[C@H](CC(=O)O)NC(=O)[C@H](Cc3ccc(OCC(=O)O)cc3)NC(=O)[C@H](CN)NC(=O)CSC[C@@H](C(=O)N[C@@H](CCN)C(N)=O)NC(=O)[C@H](CCCN)NC(=O)[C@H](C(C)C)NC(=O)[C@H](CC3CCCCC3)NC(=O)[C@H](Cc3cccnc3)NC(=O)[C@@H](CC(C)C)NC(=O)[C@H](CCCN)NC(=O)[C@H](Cc3ccc(O)cc3)NC(=O)[C@H](Cc3ccc(-c4ccccc4)cc3)NC(=O)[C@H](Cc3ccc(O)cc3)NC2=O)c1 [Compound 2037] ({CH2CO}-[Dap]Y(Carboxymethyl)D[Phe(3-Me)]Y[Bip]Y[Orn][dL][3Pal][Cha]V[Orn]C[Dab]-NH2; thioether N-14)
7 | 19.4 | Cc1cccc(C[C@@H]2NC(=O)[C@H](CC(=O)O)NC(=O)[C@H](Cc3ccc(OCC(=O)O)cc3)NC(=O)[C@H](CN)NC(=O)CSC[C@@H](C(=O)N[C@@H](CCN)C(N)=O)NC(=O)[C@H](CCCN)NC(=O)[C@H](C(C)C)NC(=O)[C@H](CC3CCCCC3)NC(=O)[C@H](CCN)NC(=O)[C@@H](CC(C)C)NC(=O)[C@H](CCNC(=O)C(C)(C)C)NC(=O)[C@H](Cc3ccc(O)cc3)NC(=O)[C@H](Cc3ccc(-c4ccccc4)cc3)NC(=O)[C@H](Cc3ccc(O)cc3)NC2=O)c1 [Compound 2038] ({CH2CO}-[Dap]Y(Carboxymethyl)D[Phe(3-Me)]Y[Bip]Y[Dab](Piv)[dL][Dab][Cha]V[Orn]C[Dab]-NH2; thioether N-14)
8 | 12.9 | Cc1cccc(C[C@@H]2NC(=O)[C@H](CC(=O)O)NC(=O)[C@H](Cc3ccc(OCC(=O)O)cc3)NC(=O)[C@H](CN)NC(=O)CSC[C@@H](C(=O)N[C@@H](CCN)C(N)=O)NC(=O)[C@H](CCCN)NC(=O)[C@H](C(C)C)NC(=O)[C@H](CC3CCCCC3)NC(=O)[C@H](CCN)NC(=O)[C@@H](CC(C)C)NC(=O)[C@@H](CCN)NC(=O)[C@H](Cc3ccc(O)cc3)NC(=O)[C@H](Cc3ccc(-c4ccccc4)cc3)NC(=O)[C@H](Cc3ccc(O)cc3)NC2=O)c1 [Compound 2039] ({CH2CO}-[Dap]Y(Carboxymethyl)D[Phe(3-Me)]Y[Bip]Y[dDab][dL][Dab][Cha]V[Orn]C[Dab]-NH2; thioether N-14)
9 | 4.9 | Cc1cccc(C[C@@H]2NC(=O)[C@H](CC(=O)O)NC(=O)[C@H](Cc3ccc(OCC(=O)O)cc3)NC(=O)[C@H](CCNC(=O)C(C)(C)C)NC(=O)CSC[C@@H](C(=O)N[C@@H](CCN)C(N)=O)NC(=O)[C@H](CCCN)NC(=O)[C@H](C(C)C)NC(=O)[C@H](CC3CCCCC3)NC(=O)[C@H](CCN)NC(=O)[C@@H](CC(C)C)NC(=O)[C@H](CCCN)NC(=O)[C@H](Cc3ccc(O)cc3)NC(=O)[C@H](Cc3ccc(-c4ccccc4)cc3)NC(=O)[C@H](Cc3ccc(O)cc3)NC2=O)c1 [Compound 2040] ({CH2CO}-[Dab](Piv)Y(Carboxymethyl)D[Phe(3-Me)]Y[Bip]Y[Orn][dL][Dab][Cha]V[Orn]C[Dab]-NH2; thioether N-14)
10 | 4.9 | Cc1cccc(C[C@@H]2NC(=O)[C@H](CC(=O)O)NC(=O)[C@H](Cc3ccc(OCC(=O)O)cc3)NC(=O)[C@H](Cc3cccnc3)NC(=O)CSC[C@@H](C(=O)N[C@@H](CCN)C(N)=O)NC(=O)[C@H](CCCN)NC(=O)[C@H](C(C)C)NC(=O)[C@H](CC3CCCCC3)NC(=O)[C@H](CCN)NC(=O)[C@@H](CC(C)C)NC(=O)[C@H](CCCN)NC(=O)[C@H](Cc3ccc(O)cc3)NC(=O)[C@H](Cc3ccc(-c4ccccc4)cc3)NC(=O)[C@H](Cc3ccc(O)cc3)NC2=O)c1 [Compound 2041] ({CH2CO}-[3Pal]Y(Carboxymethyl)D[Phe(3-Me)]Y[Bip]Y[Orn][dL][Dab][Cha]V[Orn]C[Dab]-NH2; thioether N-14)
11 | 6.5 | Cc1cccc(C[C@@H]2NC(=O)[C@H](CC(=O)O)NC(=O)[C@H](Cc3ccc(OCC(=O)O)cc3)NC(=O)[C@H](CN)NC(=O)CSC[C@@H](C(=O)N[C@@H](CCNC(=O)C(C)(C)C)C(N)=O)NC(=O)[C@H](CCCN)NC(=O)[C@H](C(C)C)NC(=O)[C@H](CC3CCCCC3)NC(=O)[C@H](CCN)NC(=O)[C@@H](CC(C)C)NC(=O)[C@H](CCCN)NC(=O)[C@H](Cc3ccc(O)cc3)NC(=O)[C@H](Cc3ccc(-c4ccccc4)cc3)NC(=O)[C@H](Cc3ccc(O)cc3)NC2=O)c1 [Compound 2042] ({CH2CO}-[Dap]Y(Carboxymethyl)D[Phe(3-Me)]Y[Bip]Y[Orn][dL][Dab][Cha]V[Orn]C[Dab](Piv)-NH2; thioether N-14)
12 | 16.8 | Cc1cccc(C[C@@H]2NC(=O)[C@H](CC(=O)O)NC(=O)[C@H](Cc3ccc(OCC(=O)O)cc3)NC(=O)[C@H](CN)NC(=O)CSC[C@@H](C(=O)NC3(C(N)=O)CC3)NC(=O)[C@H](CCCN)NC(=O)[C@H](C(C)C)NC(=O)[C@H](CC3CCCCC3)NC(=O)[C@H](CCN)NC(=O)[C@@H](CC(C)C)NC(=O)[C@H](CCCN)NC(=O)[C@H](Cc3ccc(O)cc3)NC(=O)[C@H](Cc3ccc(-c4ccccc4)cc3)NC(=O)[C@H](Cc3ccc(O)cc3)NC2=O)c1 [Compound 2043] ({CH2CO}-[Dap]Y(Carboxymethyl)D[Phe(3-Me)]Y[Bip]Y[Orn][dL][Dab][Cha]V[Orn]C[Ac3c]-NH2; thioether N-14)
13 | 9.7 | Cc1cccc(C[C@@H]2NC(=O)[C@H](CC(=O)O)NC(=O)[C@H](Cc3ccc(OCC(=O)O)cc3)NC(=O)[C@H](CN)NC(=O)CSC[C@@H](C(=O)N[C@@H](CCN)C(N)=O)NC(=O)[C@H](CCNC(=O)C(C)(C)C)NC(=O)[C@H](C(C)C)NC(=O)[C@H](CC3CCCCC3)NC(=O)[C@H](CCN)NC(=O)[C@@H](CC(C)C)NC(=O)[C@H](CCCN)NC(=O)[C@H](Cc3ccc(O)cc3)NC(=O)[C@H](Cc3ccc(-c4ccccc4)cc3)NC(=O)[C@H](Cc3ccc(O)cc3)NC2=O)c1 [Compound 2044] ({CH2CO}-[Dap]Y(Carboxymethyl)D[Phe(3-Me)]Y[Bip]Y[Orn][dL][Dab][Cha]V[Dab](Piv)C[Dab]-NH2; thioether N-14)
14 | 10.5 | Cc1cccc(C[C@@H]2NC(=O)[C@H](CC(=O)O)NC(=O)[C@H](Cc3ccc(OCC(=O)O)cc3)NC(=O)[C@H](CN)NC(=O)CSC[C@@H](C(=O)N[C@@H](CCN)C(N)=O)NC(=O)[C@@H](CCN)NC(=O)[C@H](C(C)C)NC(=O)[C@H](CC3CCCCC3)NC(=O)[C@H](CCN)NC(=O)[C@@H](CC(C)C)NC(=O)[C@H](CCCN)NC(=O)[C@H](Cc3ccc(O)cc3)NC(=O)[C@H](Cc3ccc(-c4ccccc4)cc3)NC(=O)[C@H](Cc3ccc(O)cc3)NC2=O)c1 [Compound 2045] ({CH2CO}-[Dap]Y(Carboxymethyl)D[Phe(3-Me)]Y[Bip]Y[Orn][dL][Dab][Cha]V[dDab]C[Dab]-NH2; thioether N-14)

From patent US20250163104A1, “MACROCYCLIC IMMUNOMODULATORS” (priority 2021, published 2025)
